{"source": "patent US11998602B2", "about": "“Methods for promoting myelination and for treating demyelinating diseases” (The Scripps Research Institute, priority 2018, dated 2024)", "test_system": "OPCs", "test": "Caspase-Glo 3/7 and Cell Titer Glo assays of apoptosis and survival during differentiation", "type": "cell-based, rat", "method": "Detection of caspase 3/7. In poly-D-lysine-coated white 96-well plates (Greiner), cells were seeded at 5,000 cells per well. Taurine (20 mM) was added on days 0 or 3, alone and in combination with benztropine (0.5 μM), miconazole (2 μM), T3 (1 μM) or Staurosporine (1 μM) added on day 0. The Caspase-Glo 3/7 Assay (Promega) was utilized to quantify caspase-3/7 activity 6, 24 and 48 h after drug and taurine addition on day 0. Caspase-3/7 activity was also measured 24, 48 and 72 h (days 4, 5 and 6) after taurine addition on day 3.", "data": [{"smiles": "NCCS(=O)(=O)O", "note": "[taurine, 2-aminoethanesulfonic acid]", "values": [{"measurement": "Apoptosis in OPCs treated with staurosporine", "setting": "20 mM taurine with 1 μM staurosporine (apoptosis inducer)", "value": "significantly inhibit"}, {"measurement": "Caspase 3/7 activation", "setting": "24 hours after taurine addition at day 0 or day 3, 1 μM T3, 0.5 μM benztropine or 2 μM miconazole", "value": "decrease"}, {"measurement": "Apoptosis or survival under basal differentiation conditions", "setting": "DMSO vehicle", "value": "not found to impact"}]}]}
